Test results taken from paper PMC8556396, “Statin-mediated disruption of Rho GTPase prenylation and activity inhibits respiratory syncytial virus infection” (Communications Biology, 2021).
Several values for one entry are separate records, joined by “and”; a condition that tells them apart may be missing. Identical values can stand only once. Counter-ions that a name gives are not always drawn.

Key:
RSV-GFP [1] = test: RSV-GFP infection of HEp-2 cells, automated imaging, dose-response; type: cell-based, Respiratory syncytial virus; conditions: for EC50: HEp-2, RSV-GFP MOI 0.5, treated 2 h post-viral exposure
Method: HEp-2 cells were seeded to black, flat, microclear-bottom 96-well plates (655096, Greiner Bio-One) at a density of 5000 cells per well and incubated at 37 °C/5% CO2 overnight. The following morning, cells were washed twice with serum-free EMEM and treated with RSV-GFP (MOI 0.5) in a minimal volume of serum-free media for 90 min under frequent agitation. Unbound virus was then removed and replaced with fresh serum-containing EMEM. All drug additions were performed 2 h post-viral exposure, unless otherwise stated. Nuclei were stained with Hoechst 33342 (H3570, Thermo Fisher Scientific) (at a final concentration of 1 µg/mL) 48 h p.i. and imaging was performed using the Cellomics ArrayScan VTI HCS Reader at ×10 magnification (SPARC BioCentre, The Hospital for Sick Children, Toronto, ON).
Automated quantification of infection rates from fluorescent images were performed in CellProfiler (v2.2.0)[86]. Major steps in the image analysis pipeline included: (1) background subtraction and smoothing, (2) segmentation of nuclei, (3) segmentation of GFP-fluorescent area, (4) object masking, and (5) measurement of nuclear number, size, and intensity. Infection rate was quantified from the ratio of nuclei within GFP-fluorescent area to the total number of nuclei (Fig. 1b). This method of analysis accounts for in vitro syncytium formation induced by RSV, whereby a single infected cell may arise from the fusion of multiple cells. Mean nuclear fluorescent intensity and size was quantified as a measure of cell viability. […]

RSV-GFP [2] = test: microbe, parasite or virus in culture; type: cell-based, Respiratory syncytial virus
Summary of the method: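 Cells infected with RSV-GFP (MOI 0.5) for 90 min in serum-free medium; library compounds added within 1 h of infection at 10 µM final (0.1% DMSO). At 48 h p.i., infection rate was imaged as fraction of nuclei within GFP area, with mean nuclear intensity and size serving as the viability measure.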

HEp-2 cells = test: In vitro cytotoxicity assay (MTT); type: cell-based
RSV-GFP [3] = test: Time-of-drug addition assay; type: cell-based, Respiratory syncytial virus; conditions: for antiviral effect by time of addition: 3.5 µM; for RSV-GFP inhibition (% of maximum): MOI 2.0, read 24 h p.i.
Method: Time-of-drug addition assays are routinely used to assess the approximate stage of viral infection affected by a drug[25]. HEp-2 cells were seeded to black, flat, microclear-bottom 96-well plates (Greiner Bio-One) and infected with RSV-GFP (MOI 2.0). […]. RSV-GFP infection rates were quantified 24 h p.i to approximately capture a single cycle of infection.

RSV A2 = test: Immunofluorescence staining and microscopy of RSV F and N;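 as to RSV N intensity (a.u.): fluorescence normalized to total nuclear count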

CC(C)c1c(C(=O)Nc2ccccc2)c(-c2ccccc2)c(-c2ccc(F)cc2)n1CC[C@@H](O)C[C@@H](O)CC(=O)O [Atorvastatin, Atorvastatin calcium salt trihydrate]
EC50 (RSV-GFP [1]): 2.56 µM | EC50 (RSV-GFP [1]; human respiratory syncytial virus, HEp-2, 2 h): 2.6 µM | inhibition at 0.1 µM (RSV-GFP [1]; human respiratory syncytial virus, HEp-2, 48 h, read-out: RSV-GFP inhibition (%), log Conc (uM) -1, replicate values): 5.55% | RSV inhibition in the screen (RSV-GFP [2]; HEp-2, RSV-GFP): inhibit RSV at low micromolar concentrations | inhibition at 10 µM (RSV-GFP [2]; human respiratory syncytial virus, HEp-2, read-out: RSV-GFP inhibition (%)): 56.4% | cellular viability by MTT assay at EC50 (HEp-2 cells): no significant difference from baseline | doses with significant reduction in viability (HEp-2 cells; human): greater than 10.0 µM | antiviral effect by time of addition (RSV-GFP [3]; added 8–22 h p.i.): loss in antiviral effect | antiviral effect by time of addition (RSV-GFP [3]; added 2 h pre-infection vs. 2–6 h post-infection): No difference in antiviral effect | RSV-GFP inhibition (% of maximum) (RSV-GFP [3]; atorvastatin 3.5 µM added 2 h p.i.): 93.8741 % of maximum and 100 % of maximum and 63.7076 % of maximum and 87.4617 % of maximum | RSV-GFP inhibition (% of maximum) (RSV-GFP [3]; atorvastatin 3.5 µM added 4 h p.i.): 79.9181 % of maximum and 67.4308 % of maximum and 95.7721 % of maximum and 95.1175 % of maximum | RSV-GFP inhibition (% of maximum) (RSV-GFP [3]; atorvastatin 3.5 µM added 6 h p.i.): 73.0198 % of maximum and 92.897 % of maximum and 83.1029 % of maximum and 75.3925 % of maximum | RSV-GFP inhibition (% of maximum) (RSV-GFP [3]; atorvastatin 3.5 µM added 8 h p.i.): 73.881 % of maximum and 38.0526 % of maximum and 68.6457 % of maximum and 56.4404 % of maximum | RSV-GFP inhibition (% of maximum) (RSV-GFP [3]; atorvastatin 3.5 µM added -2 h p.i.): 95.6726 % of maximum and 68.3345 % of maximum and 91.0474 % of maximum and 75.5348 % of maximum | RSV N intensity (a.u.) (RSV A2; Fig 5C, statin alone: atorvastatin 3.5 uM, simvastatin 1.5 uM): 0.7327 a.u. and 0.5028 a.u. and 0.4468 a.u. and 0.7381 a.u. | effect of atorvastatin co-treatment with CN04 (RSV A2; atorvastatin 3.5 µM with CN04 1.0 µM): negated the pro-viral effects of Rho GTPase activation
